# Reference: the SangsterLogP compilation
row,Compound,logP
1,NS(=O)(=O)c1cccc2cccnc12,0.51
2,CN(C)S(=O)(=O)c1cccc2cccnc12,1.69
3,CNS(=O)(=O)c1cccc2cccnc12,1.13
4,CNS(=O)(=O)c1ccc2ccccc2n1,1.57
5,NS(=O)(=O)c1cccc2ncccc12,0.6
6,CN(C)S(=O)(=O)c1ccc2ncccc2c1,1.53
7,NS(=O)(=O)c1cnc2ccccc2c1,0.91
8,NS(=O)(=O)c1ccc2ccccc2n1,1.16
9,CN(C)S(=O)(=O)c1ccc2ccccc2n1,1.98
10,CN(C)S(=O)(=O)c1ccnc2ccccc12,1.84
11,NS(=O)(=O)c1ccnc2ccccc12,0.93
12,CNS(=O)(=O)c1ccnc2ccccc12,1.32
13,CN(C)S(=O)(=O)c1cnc2ccccc2c1,1.86
14,CN(C)S(=O)(=O)c1cccc2ncccc12,1.56

# Second part, the molecule after the results:
row,logP,Compound
1,1.57,CN(C)S(=O)(=O)c1ccc2cccnc2c1
2,1,CNS(=O)(=O)c1ccc2ncccc2c1
3,0.61,NS(=O)(=O)c1ccc2cccnc2c1
4,1.06,CNS(=O)(=O)c1cccc2ncccc12
5,1.4,CNS(=O)(=O)c1cnc2ccccc2c1
6,1.02,CNS(=O)(=O)c1ccc2cccnc2c1
